From article PMC5218480 (PLoS ONE, 2017)

System: MV-4-11 cells
Experiment: Gene expression microarray analysis (Affymetrix PrimeView) and GSEA
Format: cell-based, human
Design: RFU PODN (11730768_x_at) / Fold change /veh PODN (11730768_x_at) / RFU LINC00158 (11744669_a_at) / Fold change /veh LINC00158 (11744669_a_at) / RFU DUSP10 (11751237_a_at) / Fold change /veh DUSP10 (11751237_a_at) / RFU ID3 (11757404_x_at) / Fold change /veh ID3 (11757404_x_at) / RFU PLEKHG5 (11737974_s_at) / Fold change /veh PLEKHG5 (11737974_s_at) / RFU LRRC4B (11730491_at) / Fold change /veh LRRC4B (11730491_at) / RFU GIMAP4 (11747438_a_at) / Fold change /veh GIMAP4 (11747438_a_at) / RFU KRT8 (11758183_x_at) / Fold change /veh KRT8 (11758183_x_at) / RFU CNN1 (11734310_a_at) / Fold change /veh CNN1 (11734310_a_at) / RFU VPS37D (11726825_at) / Fold change /veh VPS37D (11726825_at) / RFU C10orf10 (11716522_x_at) / Fold change /veh C10orf10 (11716522_x_at) / RFU KIR2DL2 /// KIR2DL4 /// KIR2DL5A /// KIR2DL5B /// KIR2DS1 /// KIR2DS2 /// KIR2DS3 /// KIR2DS4 /// KIR3DL3 /// KIR3DL3 /// KIR3DS1 (11738374_at) / Fold change /veh KIR2DL2 /// KIR2DL4 /// KIR2DL5A /// KIR2DL5B /// KIR2DS1 /// KIR2DS2 /// KIR2DS3 /// KIR2DS4 /// KIR3DL3 /// KIR3DL3 /// KIR3DS1 (11738374_at) / RFU C1QL1 (11718748_at) / Fold change /veh C1QL1 (11718748_at) / RFU TMPRSS4 (11747572_a_at) / Fold change /veh TMPRSS4 (11747572_a_at) / RFU HAMP (11756126_x_at) / Fold change /veh HAMP (11756126_x_at) / RFU RNFT2 (11725882_a_at) / Fold change /veh RNFT2 (11725882_a_at) / RFU NR4A2 (11747474_a_at) / Fold change /veh NR4A2 (11747474_a_at) / RFU ABCC12 (11746883_a_at) / Fold change /veh ABCC12 (11746883_a_at) / RFU TMEM136 (11760407_x_at) / Fold change /veh TMEM136 (11760407_x_at) / RFU CLDN22 /// WWC2 (11732394_at) / Fold change /veh CLDN22 /// WWC2 (11732394_at) / RFU HLA-DPB1 (11760878_x_at) / Fold change /veh HLA-DPB1 (11760878_x_at) / RFU SPINT1 (11716480_a_at) / Fold change /veh SPINT1 (11716480_a_at) / RFU GAP43 (11754022_s_at) / Fold change /veh GAP43 (11754022_s_at) / RFU A4GNT (11735810_at) / Fold change /veh A4GNT (11735810_at) / RFU PRB3 (11715151_x_at) / Fold change /veh PRB3 (11715151_x_at) / RFU TUBB4B (11761932_at) / Fold change /veh TUBB4B (11761932_at) / RFU CAPN14 (11732068_a_at) / Fold change /veh CAPN14 (11732068_a_at) / RFU TMCC2 (11721928_a_at) / Fold change /veh TMCC2 (11721928_a_at) / RFU IRGQ (11745062_a_at) / Fold change /veh IRGQ (11745062_a_at) / RFU FAM174B (11720279_a_at) / Fold change /veh FAM174B (11720279_a_at) / RFU TMPRSS4 (11748680_a_at) / Fold change /veh TMPRSS4 (11748680_a_at) / RFU FAM212B (11763350_a_at) / Fold change /veh FAM212B (11763350_a_at) / RFU PLEKHG5 (11743358_a_at) / Fold change /veh PLEKHG5 (11743358_a_at) / RFU ZSCAN30 (11745921_a_at) / Fold change /veh ZSCAN30 (11745921_a_at) / RFU CMKLR1 (11741424_a_at) / Fold change /veh CMKLR1 (11741424_a_at) / RFU LOC101060620 /// MAPK8IP1 (11723275_at) / Fold change /veh LOC101060620 /// MAPK8IP1 (11723275_at) / RFU SPTSSB (11747773_x_at) / Fold change /veh SPTSSB (11747773_x_at) / RFU PRSS12 (11739890_at) / Fold change /veh PRSS12 (11739890_at) / RFU BIN1 (11741810_x_at) / Fold change /veh BIN1 (11741810_x_at) / RFU WNT11 (11732464_a_at) / Fold change /veh WNT11 (11732464_a_at) / RFU C10orf10 (11716521_a_at) / Fold change /veh C10orf10 (11716521_a_at) / RFU C5orf56 (11738089_at) / Fold change /veh C5orf56 (11738089_at) / RFU CYB561 (11721691_x_at) / Fold change /veh CYB561 (11721691_x_at) / RFU ANKRD19P (11752326_a_at) / Fold change /veh ANKRD19P (11752326_a_at) / RFU OR2T12 /// OR2T33 /// OR2T8 (11738714_s_at) / Fold change /veh OR2T12 /// OR2T33 /// OR2T8 (11738714_s_at) / RFU VCAN (11748164_a_at) / Fold change /veh VCAN (11748164_a_at) / RFU JSRP1 (11732532_at) / Fold change /veh JSRP1 (11732532_at) / RFU KRTAP10-11 (11738290_x_at) / Fold change /veh KRTAP10-11 (11738290_x_at) / RFU MYO3A (11730013_a_at) / Fold change /veh MYO3A (11730013_a_at) / RFU EBF3 (11725865_a_at) / Fold change /veh EBF3 (11725865_a_at) / RFU CAMK2N1 (11719241_x_at) / Fold change /veh CAMK2N1 (11719241_x_at) / RFU C5orf56 (11738088_a_at) / Fold change /veh C5orf56 (11738088_a_at) / RFU OLFML3 (11715873_a_at) / Fold change /veh OLFML3 (11715873_a_at) / RFU LOC100653217 /// NTM (11731650_a_at) / Fold change /veh LOC100653217 /// NTM (11731650_a_at) / RFU MAPK11 (11762145_a_at) / Fold change /veh MAPK11 (11762145_a_at) / RFU FIZ1 (11724087_x_at) / Fold change /veh FIZ1 (11724087_x_at) / RFU OASL (11726364_x_at) / Fold change /veh OASL (11726364_x_at) / RFU SOX15 (11748057_x_at) / Fold change /veh SOX15 (11748057_x_at) / RFU CD79A (11719716_a_at) / Fold change /veh CD79A (11719716_a_at) / RFU HIST1H1D (11736915_at) / Fold change /veh HIST1H1D (11736915_at) / RFU CASKIN2 (11723855_a_at) / Fold change /veh CASKIN2 (11723855_a_at) / RFU LOC730098 (11760151_x_at) / Fold change /veh LOC730098 (11760151_x_at) / RFU OR4N2 (11742367_at) / Fold change /veh OR4N2 (11742367_at) / RFU PRRT2 (11749266_a_at) / Fold change /veh PRRT2 (11749266_a_at) / RFU SNX32 (11753110_a_at) / Fold change /veh SNX32 (11753110_a_at) / RFU CDHR5 (11726645_a_at) / Fold change /veh CDHR5 (11726645_a_at) / RFU RCAN1 (11760418_a_at) / Fold change /veh RCAN1 (11760418_a_at) / RFU FAM167A (11723789_a_at) / Fold change /veh FAM167A (11723789_a_at) / RFU FAM26E (11764081_at) / Fold change /veh FAM26E (11764081_at) / RFU ISYNA1 (11749810_s_at) / Fold change /veh ISYNA1 (11749810_s_at) / RFU ACY1 (11761880_at) / Fold change /veh ACY1 (11761880_at) / RFU 11764098_at / Fold change /veh 11764098_at / RFU SAMD14 (11745864_x_at) / Fold change /veh SAMD14 (11745864_x_at) / RFU NPB (11741838_a_at) / Fold change /veh NPB (11741838_a_at) / RFU TMPRSS6 (11731388_a_at) / Fold change /veh TMPRSS6 (11731388_a_at) / RFU KRTAP10-2 (11738614_at) / Fold change /veh KRTAP10-2 (11738614_at) / RFU ARHGAP8 /// PRR5-ARHGAP8 (11727945_x_at) / Fold change /veh ARHGAP8 /// PRR5-ARHGAP8 (11727945_x_at) / RFU KRTAP5-7 /// NADSYN1 (11734609_at) / Fold change /veh KRTAP5-7 /// NADSYN1 (11734609_at) / RFU RASL12 (11751679_a_at) / Fold change /veh RASL12 (11751679_a_at) / RFU CDKN2B (11736163_a_at) / Fold change /veh CDKN2B (11736163_a_at) / RFU PRF1 (11729649_at) / Fold change /veh PRF1 (11729649_at) / RFU, ZNF638 /// ZNF638-IT1 / Fold change vs veh, ZNF638 /// ZNF638-IT1 / RFU, PANK3 / Fold change vs veh, PANK3 / RFU, SH3YL1 / Fold change vs veh, SH3YL1 / RFU, ZEB2 / Fold change vs veh, ZEB2 / RFU, NRIP1 / Fold change vs veh, NRIP1 / RFU, PTTG1IP / Fold change vs veh, PTTG1IP / RFU, CAPN2 / Fold change vs veh, CAPN2 / RFU, MED14 / Fold change vs veh, MED14 / RFU, SNORA58 / Fold change vs veh, SNORA58 / RFU, C1orf63 / Fold change vs veh, C1orf63 / RFU, LRRFIP1 / Fold change vs veh, LRRFIP1 / RFU, NDUFAF7 / Fold change vs veh, NDUFAF7 / RFU, SLC12A2 / Fold change vs veh, SLC12A2 / RFU, IBTK / Fold change vs veh, IBTK / RFU, ESF1 / Fold change vs veh, ESF1 / Fold change vs veh, TMEM50B / RFU, TAOK1 / Fold change vs veh, TAOK1 / RFU, ACBD3 / Fold change vs veh, ACBD3 / RFU, TMA16 / Fold change vs veh, TMA16 / RFU, RWDD3 / Fold change vs veh, RWDD3 / RFU, BCAT1 / Fold change vs veh, BCAT1 / RFU, EDEM3 / Fold change vs veh, EDEM3 / RFU, TMEM33 / Fold change vs veh, TMEM33 / RFU, WDR75 / Fold change vs veh, WDR75 / RFU, AHCTF1 / Fold change vs veh, AHCTF1 / RFU, TFRC / Fold change vs veh, TFRC / RFU, ZDHHC17 / Fold change vs veh, ZDHHC17 / RFU, NOM1 / Fold change vs veh, NOM1 / RFU, ARL8B / Fold change vs veh, ARL8B / RFU, ZBTB11 / Fold change vs veh, ZBTB11 / RFU, TAMM41 / Fold change vs veh, TAMM41 / RFU, KIAA1704 /// LOC100996395 / Fold change vs veh, KIAA1704 /// LOC100996395 / RFU, ING1 / Fold change vs veh, ING1 / RFU, TRMT61B / Fold change vs veh, TRMT61B / RFU, FUBP3 / Fold change vs veh, FUBP3 / RFU, TP53 / Fold change vs veh, TP53 / RFU, TNKS2 / Fold change vs veh, TNKS2 / RFU, ZFP14 / Fold change vs veh, ZFP14 / RFU, ACTR2 / Fold change vs veh, ACTR2 / RFU, PPP3R1 / Fold change vs veh, PPP3R1 / RFU, PIK3R1 / Fold change vs veh, PIK3R1 / RFU, HNRNPA1 / Fold change vs veh, HNRNPA1 / RFU, RNF170 / Fold change vs veh, RNF170 / RFU, ZNF28 / Fold change vs veh, ZNF28 / RFU, RNGTT / Fold change vs veh, RNGTT / RFU, OGT / Fold change vs veh, OGT / RFU, BRD1 / Fold change vs veh, BRD1 / RFU, MARS / Fold change vs veh, MARS / RFU, ZNF655 / Fold change vs veh, ZNF655 / RFU, FAHD1 / Fold change vs veh, FAHD1 / RFU, BDP1 / Fold change vs veh, BDP1 / RFU, LRRCC1 / Fold change vs veh, LRRCC1 / RFU, ARID1A / Fold change vs veh, ARID1A / RFU, ZNF146 / Fold change vs veh, ZNF146 / RFU, ZNF330 / Fold change vs veh, ZNF330 / RFU, GPN3 / Fold change vs veh, GPN3 / RFU, C9orf123 / Fold change vs veh, C9orf123 / RFU, N4BP2L2 / Fold change vs veh, N4BP2L2 / RFU, ARFIP1 / Fold change vs veh, ARFIP1 / RFU, FAM179B / Fold change vs veh, FAM179B / RFU, BCL10 / Fold change vs veh, BCL10 / RFU, UHRF1BP1L / Fold change vs veh, UHRF1BP1L / RFU, BET1 / Fold change vs veh, BET1 / RFU, CNOT2 / Fold change vs veh, CNOT2 / RFU, ZNF268 / Fold change vs veh, ZNF268 / Fold change vs veh, ZNF507 / RFU, DGCR2 / Fold change vs veh, DGCR2 / RFU, WDSUB1 / Fold change vs veh, WDSUB1 / Fold change vs veh, HSP90B1 /// MIR3652 / RFU, ADSS / Fold change vs veh, ADSS / RFU, GK / Fold change vs veh, GK / RFU, ZNF148 / Fold change vs veh, ZNF148 / RFU, TAF9 / Fold change vs veh, TAF9 / RFU, SLC1A5 / Fold change vs veh, SLC1A5 / RFU, SLMO2 / Fold change vs veh, SLMO2 / RFU, ABCC4 / Fold change vs veh, ABCC4 / RFU, LOC101060439 /// RAP1B / Fold change vs veh, LOC101060439 /// RAP1B / RFU, RFX7 / Fold change vs veh, RFX7 / RFU, GTPBP10 / Fold change vs veh, GTPBP10 / RFU, CNEP1R1 / Fold change vs veh, CNEP1R1 / RFU, BIVM-ERCC5 /// ERCC5 / Fold change vs veh, BIVM-ERCC5 /// ERCC5 / RFU, ILF3 / Fold change vs veh, ILF3 / RFU 11762660_at / Fold change /veh 11762660_at / RFU VCAN (11757783_s_at) / Fold change /veh VCAN (11757783_s_at) / RFU DDX43 (11728927_at) / Fold change /veh DDX43 (11728927_at) / RFU KRT8 (11758188_x_at) / Fold change /veh KRT8 (11758188_x_at) / RFU NKD1 (11759106_at) / Fold change /veh NKD1 (11759106_at) / RFU SRD5A1 (11742802_a_at) / Fold change /veh SRD5A1 (11742802_a_at) / RFU TPSAB1 /// TPSB2 (11721975_s_at) / Fold change /veh TPSAB1 /// TPSB2 (11721975_s_at) / RFU GSTM3 (11746129_a_at) / Fold change /veh GSTM3 (11746129_a_at) / RFU IL23R (11737362_x_at) / Fold change /veh IL23R (11737362_x_at) / RFU TMEM51 (11727254_a_at) / Fold change /veh TMEM51 (11727254_a_at) / RFU PIWIL2 (11732686_x_at) / Fold change /veh PIWIL2 (11732686_x_at) / RFU ORM1 (11744905_x_at) / Fold change /veh ORM1 (11744905_x_at) / RFU CCDC152 (11743942_at) / Fold change /veh CCDC152 (11743942_at) / RFU ECM1 (11717891_a_at) / Fold change /veh ECM1 (11717891_a_at) / RFU IL23R (11748794_a_at) / Fold change /veh IL23R (11748794_a_at) / RFU TNFAIP8L3 (11732012_x_at) / Fold change /veh TNFAIP8L3 (11732012_x_at) / RFU MBOAT4 (11741988_at) / Fold change /veh MBOAT4 (11741988_at) / RFU 11764193_at / Fold change /veh 11764193_at / RFU TMEM53 (11763286_at) / Fold change /veh TMEM53 (11763286_at) / RFU MAGEB2 (11727129_at) / Fold change /veh MAGEB2 (11727129_at) / RFU TMEM200A (11744735_a_at) / Fold change /veh TMEM200A (11744735_a_at) / RFU CCDC152 (11751479_a_at) / Fold change /veh CCDC152 (11751479_a_at) / RFU FAM211A (11726209_a_at) / Fold change /veh FAM211A (11726209_a_at) / RFU RGS16 (11746705_a_at) / Fold change /veh RGS16 (11746705_a_at) / RFU VCAN (11755009_s_at) / Fold change /veh VCAN (11755009_s_at) / RFU RHOB (11743442_s_at) / Fold change /veh RHOB (11743442_s_at) / RFU RGS16 (11720943_a_at) / Fold change /veh RGS16 (11720943_a_at) / RFU RGS16 (11720944_at) / Fold change /veh RGS16 (11720944_at) / RFU, VPS4B / Fold change vs veh, VPS4B / RFU, CREB1 / Fold change vs veh, CREB1 / RFU, DNAJC13 / Fold change vs veh, DNAJC13 / RFU, GNAQ / Fold change vs veh, GNAQ / RFU, CDK5R1 / Fold change vs veh, CDK5R1 / RFU, ZRANB3 / Fold change vs veh, ZRANB3 / RFU, CUL4A / Fold change vs veh, CUL4A / RFU, CCNY / Fold change vs veh, CCNY / RFU, UFL1 / Fold change vs veh, UFL1 / RFU, COG3 / Fold change vs veh, COG3 / RFU, DIAPH2 / Fold change vs veh, DIAPH2 / RFU, SKA2 / Fold change vs veh, SKA2 / RFU, AFF3 / Fold change vs veh, AFF3 / RFU, LMF1 / Fold change vs veh, LMF1 / RFU, IPO11 / Fold change vs veh, IPO11 / RFU, DFFB / Fold change vs veh, DFFB / RFU, FOXP1 / Fold change vs veh, FOXP1 / RFU, CARD8 / Fold change vs veh, CARD8 / RFU, STRN3 / Fold change vs veh, STRN3 / RFU, ADK / Fold change vs veh, ADK / RFU, RASSF2 / Fold change vs veh, RASSF2 / RFU, WIPF1 / Fold change vs veh, WIPF1 / RFU, LARP1B / Fold change vs veh, LARP1B / RFU, RASA1 / Fold change vs veh, RASA1 / RFU, RB1 / Fold change vs veh, RB1 / RFU, PPFIA1 / Fold change vs veh, PPFIA1 / RFU, MAT2A / Fold change vs veh, MAT2A / RFU, CCT5 / Fold change vs veh, CCT5 / RFU, WDR92 / Fold change vs veh, WDR92 / RFU, CUX1 / Fold change vs veh, CUX1 / RFU, TTC7A / Fold change vs veh, TTC7A / RFU, TMEM135 / Fold change vs veh, TMEM135 / RFU, DEPTOR / Fold change vs veh, DEPTOR / RFU, CPM / Fold change vs veh, CPM / RFU, DNAJB6 / Fold change vs veh, DNAJB6 / RFU, CACNA2D3 / Fold change vs veh, CACNA2D3 / RFU, DTX4 / Fold change vs veh, DTX4 / RFU, TFCP2 / Fold change vs veh, TFCP2 / RFU, GMCL1 /// GMCL1P1 / Fold change vs veh, GMCL1 /// GMCL1P1 / RFU, AEBP2 / Fold change vs veh, AEBP2 / RFU, SNHG1 /// SNORD22 /// SNORD25 /// SNORD26 /// SNORD27 /// SNORD28 /// SNORD29 /// SNORD31 / Fold change vs veh, SNHG1 /// SNORD22 /// SNORD25 /// SNORD26 /// SNORD27 /// SNORD28 /// SNORD29 /// SNORD31 / Fold change (Aza/veh), C12orf56 (ProbeSet 11735607_a_at) / Fold change (ACY-1035/veh), C12orf56 (ProbeSet 11735607_a_at) / Fold change (Aza/veh), FGFR1OP (ProbeSet 11751329_s_at) / Fold change (ACY-1035/veh), FGFR1OP (ProbeSet 11751329_s_at) / Fold change (Aza/veh), VPS36 (ProbeSet 11739960_a_at) / Fold change (ACY-1035/veh), VPS36 (ProbeSet 11739960_a_at) / RFU SYPL1 (11715823_x_at) / Fold change /veh SYPL1 (11715823_x_at) / RFU IGFBP7 (11715501_s_at) / Fold change /veh IGFBP7 (11715501_s_at) / RFU REEP3 (11722064_at) / Fold change /veh REEP3 (11722064_at) / RFU IGLL1 (11728026_x_at) / Fold change /veh IGLL1 (11728026_x_at): dose or concentration left out as unconfirmed
Conditions: MV-4-11 cells, 48 hours

Nc1ncn([C@@H]2O[C@H](CO)[C@@H](O)[C@H]2O)c(=O)n1 [azacitidine]
Fold change /veh RASL12 (11751679_a_at): 0.96
